Results on one substance are retold here after EP0448811A1, “New pharmaceutical composition with anti-inflammatory activity” (SCLAVO S.p.A., priority 1989, dated 1991).

In series [1] the test system is adjuvant-induced arthritis in the rat. Put plainly: adjuvant-induced arthritis in the rat (secondary lesion, uninjected paw volume by water plethysmometer). It is filed as in vivo, consanguineous Lewis rats.
Series [2] relates to plasma peptidase. The note with it: compared with natural tuftsin (I); cited from earlier work.

Turning to gThr-mLys-Pro-Arg-OH [R-T], the “effectiveness relative to natural tuftsin” value in series [1] (administered orally) is on record as “at least 10 times”. Further, the “reduction in secondary lesion development” value in series [1] (intraperitoneally (i.p.), 0.1 mg/kg, three times per week until the 38th day) was “appreciable reduction in secondary lesion development, which is statistically significant only during the initial days of treatment”. In series [1] (oral (intragastric intubation), 0.1 mg/kg, three times per week from day 0 until the 38th day, paw volume from the 14th day), the “anti-inflammatory activity (reduction in the volume of the uninjected paw)” value is “considerable anti-inflammatory activity”. In addition, the “reduction in secondary lesion” value in series [1] (subcutaneously (s.c.), 0.1 mg/kg, three times per week until the 38th day) is on record as “no statistically significant reduction in secondary lesion”. In addition, the “stability towards plasma peptidase” value in series [2] is “greater stability towards plasma peptidase”.
